The structures appear in SMILES notation.

Assay [1] is described as follows: DRUGMATRIX: beta-Lactamase enzyme inhibition (substrate: Nitrocefin). The arrangement: species or system Bacillus cereus. Particulars: Not Active = under 50% inhibition at 10 µM.
In assay [2] the target is T1, Adenosine receptor A3 (Homo sapiens, UniProt P0DMS8).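 Note: radioligand binding assay with AB-MECA serving as the labeled ligand; in other assays of this panel Not Active means under 50% inhibition at 10 µM.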
T1 sequence (P0DMS8 whole entry): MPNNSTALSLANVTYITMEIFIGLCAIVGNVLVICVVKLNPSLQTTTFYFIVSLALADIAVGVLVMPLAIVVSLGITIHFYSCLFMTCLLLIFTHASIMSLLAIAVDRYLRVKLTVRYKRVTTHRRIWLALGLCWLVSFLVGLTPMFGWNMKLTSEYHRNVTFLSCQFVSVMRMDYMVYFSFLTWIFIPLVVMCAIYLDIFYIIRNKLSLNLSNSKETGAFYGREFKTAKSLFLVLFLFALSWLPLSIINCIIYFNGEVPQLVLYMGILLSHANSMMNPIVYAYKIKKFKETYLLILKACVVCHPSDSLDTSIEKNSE
The assay is classed as cell membranes, CHO-K1, Membrane. Particulars: for Ki: read-out: Ki.

Assay [3] can be described thus: DRUGMATRIX: Calcium Channel Type L, Phenylalkylamine radioligand binding (ligand: [3H] (-)-Desmethoxyverapamil (D-888)). Type of assay: cell membranes, Rattus norvegicus, Wistar, Brain, Membrane. The following applies: Not Active = under 50% inhibition at 10 µM.
The nature of assay [4]: DRUGMATRIX: Nicotinic Acetylcholine radioligand binding (ligand: [125I] Epibatidine). Type of assay: cell membranes, Membrane. The following applies: imr-32; Not Active = under 50% inhibition at 10 µM.
Assay [5] concerns the target T2, Vasoactive intestinal polypeptide receptor 1 (Homo sapiens, UniProt P32241). Note: in other assays of this panel Not Active means under 50% inhibition at 10 µM.
T2 sequence (P32241 whole entry): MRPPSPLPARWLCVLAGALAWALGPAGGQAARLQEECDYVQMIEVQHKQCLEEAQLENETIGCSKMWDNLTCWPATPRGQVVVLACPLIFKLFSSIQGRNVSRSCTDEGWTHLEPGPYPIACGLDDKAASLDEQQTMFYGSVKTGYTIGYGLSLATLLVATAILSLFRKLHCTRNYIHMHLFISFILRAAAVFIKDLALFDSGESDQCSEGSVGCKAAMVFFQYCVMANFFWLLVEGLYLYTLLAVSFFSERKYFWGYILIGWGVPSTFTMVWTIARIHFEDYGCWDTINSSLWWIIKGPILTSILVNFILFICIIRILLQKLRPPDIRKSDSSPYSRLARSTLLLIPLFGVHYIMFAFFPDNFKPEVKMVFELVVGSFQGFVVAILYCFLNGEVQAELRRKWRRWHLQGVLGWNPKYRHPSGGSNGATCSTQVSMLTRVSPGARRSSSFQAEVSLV
The assay is classed as cell membranes, Membrane. Particulars: ht-29.

For assay [6], the target named is Sodium-dependent dopamine transporter (Homo sapiens, UniProt Q01959). The experiment in a line: DRUGMATRIX: Dopamine Transporter radioligand binding (ligand: [125I] RTI-55). Type of assay: cell membranes, CHO-K1, Membrane. Particulars: Not Active = under 50% inhibition at 10 µM; for Ki: read-out: Ki.
For assay [7], the target named is Melanocortin receptor 3 (Homo sapiens, UniProt P41968). Type of assay: cell membranes, Membrane. Particulars: hek293. Note: in other assays of this panel Not Active means under 50% inhibition at 10 µM.
Chain of Melanocortin receptor 3 (P41968 whole entry): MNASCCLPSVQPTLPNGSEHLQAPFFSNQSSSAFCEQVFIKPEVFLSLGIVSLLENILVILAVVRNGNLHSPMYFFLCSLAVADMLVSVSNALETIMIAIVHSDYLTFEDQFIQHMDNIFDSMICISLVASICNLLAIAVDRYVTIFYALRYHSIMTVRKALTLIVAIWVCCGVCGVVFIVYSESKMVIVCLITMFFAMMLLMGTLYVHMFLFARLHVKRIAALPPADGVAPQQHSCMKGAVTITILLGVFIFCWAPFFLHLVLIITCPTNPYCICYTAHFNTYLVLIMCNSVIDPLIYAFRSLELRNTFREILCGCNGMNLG

Chain of Sodium-dependent dopamine transporter (Q01959 whole entry): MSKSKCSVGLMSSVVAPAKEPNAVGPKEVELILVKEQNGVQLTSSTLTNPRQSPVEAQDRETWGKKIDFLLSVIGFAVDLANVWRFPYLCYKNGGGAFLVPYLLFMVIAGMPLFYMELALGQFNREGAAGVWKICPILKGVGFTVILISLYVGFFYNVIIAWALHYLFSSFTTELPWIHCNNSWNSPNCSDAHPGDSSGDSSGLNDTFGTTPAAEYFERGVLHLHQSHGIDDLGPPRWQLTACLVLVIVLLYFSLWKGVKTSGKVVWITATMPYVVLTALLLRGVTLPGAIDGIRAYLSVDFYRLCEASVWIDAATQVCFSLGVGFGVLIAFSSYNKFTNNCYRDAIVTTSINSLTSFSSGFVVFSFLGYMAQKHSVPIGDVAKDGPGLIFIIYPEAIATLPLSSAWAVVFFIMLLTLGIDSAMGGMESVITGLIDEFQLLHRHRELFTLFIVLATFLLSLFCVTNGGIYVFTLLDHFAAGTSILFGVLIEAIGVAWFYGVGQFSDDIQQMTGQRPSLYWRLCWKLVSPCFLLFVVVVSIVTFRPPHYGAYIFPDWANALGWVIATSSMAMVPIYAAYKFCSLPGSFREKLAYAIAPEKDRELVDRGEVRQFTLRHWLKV

Consider `O=C(O)Cc1ccccc1Nc1c(Cl)cccc1Cl` [DICLOFENAC], for which the IC50 result in assay [1], in assay [2] (cho-k1), in assay [3], in assay [4], in assay [5] and in assay [6] (cho-k1) was “Not Active” throughout. The IC50 (commonly the concentration needed to halve the response being measured) in assay [7] is reported as “Not Active”. For the same compound, the Ki result in assay [1], in assay [3] and in assay [4] was “Not Active” each time.
As for `C[C@H]1O[C@@H](O[C@H]2[C@@H](O)C[C@H](O[C@H]3[C@@H](O)C[C@H](O[C@H]4CC[C@@]5(C)[C@H](CC[C@@H]6[C@@H]5CC[C@]5(C)[C@@H](C7=CC(=O)OC7)CC[C@]65O)C4)O[C@@H]3C)O[C@@H]2C)C[C@H](O)[C@@H]1O` [DIGITOXIN], the IC50 result in assay [1], in assay [2] (cho-k1), in assay [3], in assay [4], in assay [5] and in assay [6] (cho-k1) was “Not Active” each time. The IC50 result in assay [7] is reported as “Not Active”. Besides, the Ki entry in assay [1], in assay [3] and in assay [4] was “Not Active” each time.
For the compound `CCN1CC(CCN2CCOCC2)C(c2ccccc2)(c2ccccc2)C1=O` (centres undefined) [DOXAPRAM], the IC50 result in assay [1], in assay [2] (cho-k1), in assay [3], in assay [4], in assay [5] and in assay [6] (cho-k1) was “Not Active” each time. Besides, the 50% inhibitory concentration (IC50) result in assay [7] is “Not Active”. The Ki result in assay [1], in assay [3] and in assay [4] was “Not Active” each time.
In the case of `Cn1c(=O)c2c(ncn2CC2OCCO2)n(C)c1=O` [DOXOFYLLINE], the IC50 entry in assay [1], in assay [2] (cho-k1), in assay [3], in assay [4], in assay [5] and in assay [6] (cho-k1) was “Not Active” throughout. Further, in assay [7], the IC50 result is “Not Active”. Moreover, the Ki entry in assay [1], in assay [3] and in assay [4] was “Not Active” each time.
As for `COc1cccc2c1C(=O)c1c(O)c3c(c(O)c1C2=O)C[C@@](O)(C(=O)CO)C[C@@H]3O[C@H]1C[C@H](N)[C@H](O)[C@H](C)O1` [DOXORUBICIN], the IC50 entry in assay [1], in assay [2] (cho-k1), in assay [3], in assay [4], in assay [5] and in assay [6] (cho-k1) was “Not Active” in each case. In assay [7], the IC50 entry is recorded as “Not Active”. Moreover, the Ki result in assay [1], in assay [3] and in assay [4] was “Not Active” each time.
In the case of `COc1cccc2c1C(=O)c1c(O)c3c(c(O)c1C2=O)C[C@@](O)(C(=O)CO)C[C@@H]3O[C@H]1C[C@H](N)[C@@H](O)[C@H](C)O1` [EPIRUBICIN], the IC50 entry in assay [1], in assay [2] (cho-k1), in assay [3], in assay [4], in assay [5] and in assay [6] (cho-k1) was “Not Active” each time. For the same compound, the IC50 entry in assay [7] is reported as “Not Active”. Moreover, the Ki entry in assay [1], in assay [3] and in assay [4] was “Not Active” each time.
Turning to `C[C@]12CC[C@@H]3c4ccc(OC(=O)c5ccccc5)cc4CC[C@H]3[C@@H]1CC[C@@H]2O` [ESTRADIOL BENZOATE], the IC50 entry in assay [1] is “Not Active”; in assay [2] (read-out: IC50), 21.8 µM; in assay [3] it was “Not Active”; in assay [4] it was “Not Active”; in assay [5], “Not Active”; in assay [6] (cho-k1), “Not Active”. The IC50 entry in assay [7] is “Not Active”. Besides, the inhibition constant (Ki) (commonly a measure of affinity in units of concentration, obtained from inhibition or displacement) was “Not Active” in assay [1], 12.3 µM in assay [2], “Not Active” in assay [3] and “Not Active” in assay [4].
Take `C[C@]12CC[C@@H]3c4ccc(O)cc4CC[C@H]3[C@@H]1CC[C@@H]2O` [ESTRADIOL]: the IC50 result in assay [1] was “Not Active”; in assay [2] (cho-k1), “Not Active”; in assay [3], “Not Active”; in assay [4], “Not Active”; in assay [5], “Not Active”; in assay [6] (read-out: IC50), 14.9 µM. Also, the IC50 entry in assay [7] is “Not Active”. Besides, the Ki entry in assay [1] is “Not Active”; in assay [3], “Not Active”; in assay [4] it was “Not Active”; in assay [6], 11.8 µM.
As for `CC[C@@H](CO)NCCN[C@@H](CC)CO` [ETHAMBUTOL], the IC50 result in assay [1], in assay [2] (cho-k1), in assay [3], in assay [4], in assay [5] and in assay [6] (cho-k1) was “Not Active” throughout. Further, in assay [7], the IC50 result is given as “Not Active”. Also, the Ki result in assay [1], in assay [3] and in assay [4] was “Not Active” each time.
Turning to `CC1(C)O[C@@H]2C[C@H]3[C@@H]4C[C@H](F)C5=CC(=O)C=C[C@]5(C)[C@H]4[C@@H](O)C[C@]3(C)[C@]2(C(=O)CO)O1` [FLUNISOLIDE], the IC50 entry in assay [1], in assay [2] (cho-k1), in assay [3], in assay [4], in assay [5] and in assay [6] (cho-k1) was “Not Active” in each case. The IC50 entry in assay [7] is “Not Active”. The inhibitory constant (Ki) result in assay [1], in assay [3] and in assay [4] was “Not Active” in each case.
Take `CC1(C)O[C@@H]2C[C@H]3[C@@H]4C[C@H](F)C5=CC(=O)C=C[C@]5(C)[C@@]4(F)[C@@H](O)C[C@]3(C)[C@]2(C(=O)CO)O1` [FLUOCINOLONE ACETONIDE]: the IC50 result in assay [1], in assay [2] (cho-k1), in assay [3], in assay [4], in assay [5] and in assay [6] (cho-k1) was “Not Active” in each case. Besides, in assay [7], the IC50 result is listed as “Not Active”. Moreover, the Ki result in assay [1], in assay [3] and in assay [4] was “Not Active” throughout.
For the compound `CC1(C)O[C@@H]2C[C@H]3[C@@H]4C[C@H](F)C5=CC(=O)CC[C@]5(C)[C@H]4[C@@H](O)C[C@]3(C)[C@]2(C(=O)CO)O1` [FLURANDRENOLIDE], the IC50 result in assay [1], in assay [2] (cho-k1), in assay [3], in assay [4], in assay [5] and in assay [6] (cho-k1) was “Not Active” throughout. In assay [7], the IC50 entry is listed as “Not Active”. In addition, the Ki result in assay [1], in assay [3] and in assay [4] was “Not Active” throughout.
As for `CN(C)c1ccc(C(=C2C=CC(=[N+](C)C)C=C2)c2ccc(N(C)C)cc2)cc1.[Cl-]` [GENTIAN VIOLET], the IC50 result in assay [1] is “Not Active”; in assay [2] (read-out: IC50), 4.17 µM; in assay [3] (read-out: IC50) it was 3.44 µM; in assay [4] it was “Not Active”; in assay [5], “Not Active”; in assay [6] (read-out: IC50), 4.07 µM. In assay [7], the IC50 entry is “Not Active”. In addition, the inhibitory constant (Ki) entry was “Not Active” in assay [1]; 2.35 µM in assay [2]; 3.35 µM in assay [3] (read-out: Ki); “Not Active” in assay [4]; 3.23 µM in assay [6].
In the case of `Cc1ccc(S(=O)(=O)NC(=O)NN2CC3CCCC3C2)cc1` (centres undefined) [GLICLAZIDE], the IC50 result in assay [1], in assay [2] (cho-k1), in assay [3], in assay [4], in assay [5] and in assay [6] (cho-k1) was “Not Active” in each case. Also, the IC50 result in assay [7] is “Not Active”. For the same compound, the Ki entry in assay [1], in assay [3] and in assay [4] was “Not Active” in each case.

The values above are taken from ChEMBL document CHEMBL1909046, “DrugMatrix in vitro pharmacology data”.
